Laboratory results reported in article PMC11415492 (Nature Communications, 2024).
“And” between values parts separate entries of the source, which are not always exact repeats. Identical values can stand only once. Counter-ions that a name gives are not always drawn. Like-named read-outs stand apart in the source and are kept apart here.

Tests used:
hKOR [1] = molecular target: T1, hKOR (Homo sapiens, UniProt P41145); experiment: KOR [35S]GTPγS agonist assay (commercial); assay type: biochemical; settings: agonist, n = 1
T1 construct: expressed in transfected cells; host or cells: HEK-293T, transient (PEI)
T1 sequence (P41145 whole entry): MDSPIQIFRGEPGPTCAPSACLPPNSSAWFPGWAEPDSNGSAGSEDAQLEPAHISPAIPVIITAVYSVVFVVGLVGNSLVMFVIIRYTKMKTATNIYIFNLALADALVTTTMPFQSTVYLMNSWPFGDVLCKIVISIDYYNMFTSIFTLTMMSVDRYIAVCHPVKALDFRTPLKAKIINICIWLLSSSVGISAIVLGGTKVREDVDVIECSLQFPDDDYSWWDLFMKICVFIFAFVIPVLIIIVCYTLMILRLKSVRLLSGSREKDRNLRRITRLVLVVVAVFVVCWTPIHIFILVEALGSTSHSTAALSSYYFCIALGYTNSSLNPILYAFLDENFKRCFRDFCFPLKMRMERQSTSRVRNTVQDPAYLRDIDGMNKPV

hKOR [2] = molecular target: T1, hKOR; experiment: Nanobody Nb33 sensor recruitment BRET assay; assay type: cell-based
[3] = molecular target: T2, human nicotinic acetylcholine receptor (nAChR α3β4) (Homo sapiens, UniProt P30926+P32297); experiment: nAChR α3β4 inhibition, electrophysiology (commercial); assay type: cell-based
T2 construct: purchased contracted research organization (eurofinsdiscoveryservices.com) item CYL8057IF2
T2 sequence (P32297 32-505): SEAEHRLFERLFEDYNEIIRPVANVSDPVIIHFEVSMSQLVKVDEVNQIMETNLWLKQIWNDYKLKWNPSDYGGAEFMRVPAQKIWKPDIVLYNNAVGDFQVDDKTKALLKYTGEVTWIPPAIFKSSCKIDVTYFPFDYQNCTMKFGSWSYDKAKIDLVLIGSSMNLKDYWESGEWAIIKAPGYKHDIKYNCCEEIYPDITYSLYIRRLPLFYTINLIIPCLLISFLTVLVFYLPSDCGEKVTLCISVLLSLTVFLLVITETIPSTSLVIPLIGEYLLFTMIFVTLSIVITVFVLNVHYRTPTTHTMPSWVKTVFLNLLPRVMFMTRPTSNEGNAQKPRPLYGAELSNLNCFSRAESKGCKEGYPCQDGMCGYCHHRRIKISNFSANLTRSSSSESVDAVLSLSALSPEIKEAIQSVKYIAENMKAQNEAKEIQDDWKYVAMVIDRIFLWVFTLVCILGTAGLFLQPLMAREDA
T2 sequence (P30926 22-498): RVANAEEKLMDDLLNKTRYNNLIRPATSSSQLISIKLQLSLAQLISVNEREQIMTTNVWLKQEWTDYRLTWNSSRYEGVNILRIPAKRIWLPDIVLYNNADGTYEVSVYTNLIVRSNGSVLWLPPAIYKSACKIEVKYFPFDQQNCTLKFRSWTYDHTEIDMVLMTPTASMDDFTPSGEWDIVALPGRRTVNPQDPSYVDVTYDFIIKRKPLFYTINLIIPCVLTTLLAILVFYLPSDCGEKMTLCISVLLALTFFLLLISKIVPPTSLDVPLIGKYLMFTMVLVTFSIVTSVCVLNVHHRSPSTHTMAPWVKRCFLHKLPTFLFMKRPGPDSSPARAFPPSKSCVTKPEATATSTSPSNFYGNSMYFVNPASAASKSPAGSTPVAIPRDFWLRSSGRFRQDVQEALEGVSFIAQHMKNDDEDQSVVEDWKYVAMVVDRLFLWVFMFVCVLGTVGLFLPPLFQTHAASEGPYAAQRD

hNOP = molecular target: T3, hNOP (Homo sapiens, UniProt P41146); experiment: human NOP (Orphanin ORL1) radioligand displacement; assay type: binding
T3 construct: purchased contracted research organization (eurofinsdiscoveryservices.com) item 260600
T3 sequence (P41146 whole entry): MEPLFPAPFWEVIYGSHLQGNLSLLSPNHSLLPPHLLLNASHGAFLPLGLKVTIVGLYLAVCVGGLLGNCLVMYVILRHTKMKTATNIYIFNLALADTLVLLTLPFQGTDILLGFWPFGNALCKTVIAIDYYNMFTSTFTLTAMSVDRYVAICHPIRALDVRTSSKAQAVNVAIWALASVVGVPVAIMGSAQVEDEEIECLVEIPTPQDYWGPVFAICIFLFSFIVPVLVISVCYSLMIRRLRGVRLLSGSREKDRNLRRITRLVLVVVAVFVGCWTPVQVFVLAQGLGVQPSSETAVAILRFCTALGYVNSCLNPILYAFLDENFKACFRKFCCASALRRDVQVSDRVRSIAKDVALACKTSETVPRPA

h5-HT2B = h5-HT2B (Homo sapiens, UniProt P41595); experiment: IP1 functional assay, antagonist; assay type: cell-based; settings: read-out: % Inhibition of Control Agonist Response
Sequence of h5-HT2B (P41595 whole entry): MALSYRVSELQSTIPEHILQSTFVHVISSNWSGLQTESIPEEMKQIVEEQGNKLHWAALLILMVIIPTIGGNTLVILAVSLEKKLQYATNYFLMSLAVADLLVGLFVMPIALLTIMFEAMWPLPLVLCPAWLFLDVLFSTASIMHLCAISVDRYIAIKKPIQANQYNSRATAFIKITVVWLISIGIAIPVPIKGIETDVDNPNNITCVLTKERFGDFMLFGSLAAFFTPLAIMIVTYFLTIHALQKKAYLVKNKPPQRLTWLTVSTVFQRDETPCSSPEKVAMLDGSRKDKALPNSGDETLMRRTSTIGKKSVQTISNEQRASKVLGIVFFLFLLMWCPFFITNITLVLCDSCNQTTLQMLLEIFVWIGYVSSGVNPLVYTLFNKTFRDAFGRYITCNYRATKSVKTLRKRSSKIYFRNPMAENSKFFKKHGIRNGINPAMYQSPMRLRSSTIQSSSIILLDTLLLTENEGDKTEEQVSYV

[4] = test system: adult human primary ventricular myocytes; experiment: Cardiotoxicity (pro-arrhythmia) assay in adult human primary cardiomyocytes; assay type: cell-based; settings: for pro-arrhythmic potential: 0.1–10 µM
male rats = experiment: Food maintained (operant) responding; assay type: in vivo, rat; settings: 40 mg/kg i.p.
Method: For food maintained responding studies, food access was restricted such that rats were maintained at 90% of their normal body weight until responding stabilized, at which point rats were provided 12–15 g of rodent chow in addition to the food pellets earned during the experimental session.
Rats were lever trained as described in the general methods. Responding was maintained as described with notable difference in timeout (TO) period 6 min and sessions lasting 2 h or until a maximum of 20 pellets was delivered. […] Responding was considered stable when variation in the number of reinforcers for three consecutive sessions was less than 20%. For the group receiving oxa-noribogaine, data were analyzed using a two-way ANOVA with Šidák’s multiple comparisons test for post hoc comparison.

[5] = Pharmacokinetic study in mice (plasma and brain), with estimated free drug concentrations; assay type: in vivo, mouse; settings: mice, 10 mg/kg s.c., individual animals, 10 mg/kg

CCC1CC2CC3c4[nH]c5ccc(O)cc5c4CCN(C2)C13 (centres unmarked) [Noribogaine, Noribogaine hydrochloride]
Emax (hKOR [1]): 73%
EC50 (hKOR [1]; (95% CI)): 8.33 µM
% effect at 100 µM (hKOR [2]): < 3%
IC50 [3]: 5 µM
IC50 ([3]; electrophysiology, n = 1, (95% CI)): 4.96 µM
% displacement at 10 µM (hNOP; at 10 µM, n = 1): < 0%
binding affinity for nociceptin receptor (ORL-1/NOP) (hNOP; up to 10 µM): No binding affinity
inhibition at 10 µM (h5-HT2B; 1.00E-05 M): 10%
inhibition at 1 µM (h5-HT2B; 1.00E-06 M): 7%
concentration with greater than 20% incidence of arrhythmia-associated events (considerable pro-arrhythmia risk) [4]: ≥ 1 µM
Alternans % ([4]; 0.1 (µM)): 0%
Contraction Failure % ([4]; 0.1 (µM)): 0%
STV % ([4]; 0.1 (µM)): 0%
After-contraction % ([4]; 0.1 (µM), incidence of cells): 16.67%
pro-arrhythmic potential [4]: pro-arrhythmic potential by causing after-contractions and contraction failures
pro-arrhythmic potential ([4]; listed as noribogaine): concentration-dependent pro-arrhythmia risk
After-contraction % ([4]; 1 (µM)): 33.33%
Alternans % ([4]; 1 (µM)): 0%
Contraction Failure % ([4]; 1 (µM)): 0%
STV % ([4]; 1 (µM)): 0%
After-contraction % ([4]; 3.16 (µM)): 50%
Alternans % ([4]; 3.16 (µM)): 0%
Contraction Failure % ([4]; 3.16 (µM)): 16.67%
STV % ([4]; 3.16 (µM)): 0%
After-contraction % ([4]; 10 (µM)): 50%
Alternans % ([4]; 10 (µM)): 0%
Contraction Failure % ([4]; 10 (µM)): 16.67%
STV % ([4]; 10 (µM)): 0%
suppression of responding maintained by food on day 1 (male rats): > 80%
Brain Concentration (total) ([5]; 0.083 h): 6.61 µmol/L and 8.95 µmol/L
Free Brain Concentration ([5]; 0.083 h): 0.78 µmol/L and 1.057 µmol/L
Free Plasma Concentration ([5]; 0.083 h): 2.258 µmol/L and 2.308 µmol/L and 1.083 µmol/L
Plasma Concentration (total) ([5]; 0.083 h): 4.83 µmol/L and 2.26 µmol/L and 4.72 µmol/L
Brain Concentration (total) ([5]; 0.25 h): 14.1 µmol/L and 14.82 µmol/L
Free Brain Concentration ([5]; 0.25 h): 1.664 µmol/L and 1.749 µmol/L
Free Plasma Concentration ([5]; 0.25 h): 2.314 µmol/L and 3.247 µmol/L
Plasma Concentration (total) ([5]; 0.25 h): 6.79 µmol/L and 6.1 µmol/L
Brain Concentration (total) ([5]; 0.5 h): 18.56 µmol/L and 18.39 µmol/L
Free Brain Concentration ([5]; 0.5 h): 2.19 µmol/L and 2.17 µmol/L
Free Plasma Concentration ([5]; 0.5 h): 2.561 µmol/L and 3.671 µmol/L
Plasma Concentration (total) ([5]; 0.5 h): 7.68 µmol/L and 6.99 µmol/L
Brain Concentration (total) ([5]; 1 h): 11.3 µmol/L and 11.04 µmol/L
Free Brain Concentration ([5]; 1 h): 1.334 µmol/L and 1.303 µmol/L
Free Plasma Concentration ([5]; 1 h): 1.924 µmol/L and 1.899 µmol/L
Plasma Concentration (total) ([5]; 1 h): 3.97 µmol/L and 4.11 µmol/L
Brain Concentration (total) ([5]; 2 h): 4.77 µmol/L and 6.38 µmol/L
Free Brain Concentration ([5]; 2 h): 0.563 µmol/L and 0.752 µmol/L
Free Plasma Concentration ([5]; 2 h): 1.638 µmol/L and 0.938 µmol/L
Plasma Concentration (total) ([5]; 2 h): 1.96 µmol/L and 2.67 µmol/L
Brain Concentration (total) ([5]; 4 h): 2.93 µmol/L and 1.78 µmol/L and 5.54 µmol/L
Free Brain Concentration ([5]; 4 h): 0.346 µmol/L and 0.211 µmol/L and 0.654 µmol/L
Free Plasma Concentration ([5]; 4 h): 1.067 µmol/L and 0.684 µmol/L and 0.289 µmol/L
Plasma Concentration (total) ([5]; 4 h): 1.43 µmol/L and 0.61 µmol/L and 2.23 µmol/L
Brain Concentration (total) ([5]; 8 h): 0.81 µmol/L and 0.72 µmol/L and 0.21 µmol/L
Free Brain Concentration ([5]; 8 h): 0.095 µmol/L and 0.085 µmol/L and 0.024 µmol/L
Free Plasma Concentration ([5]; 8 h): 0.047 µmol/L and 0.125 µmol/L and 0.114 µmol/L
